Among the data in US8198279B2, “Pyrido[2,3-b]pyrazin-8-substituted compounds and their use” (Institute of Cancer Research: Royal Cancer Hospital (The), priority 2007, dated 2012) are IC50 and GI50 values, retold here.

For test [1], the target named is T1, B-RAF (Homo sapiens, UniProt P15056, V600E).
T1 construct: made in house
Kind of test: DELFIA Kinase Assay. The test is classed as biochemical. The settings on record: 100 μM ATP, GST-MEK substrate. In a few lines: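 Recombinant B-RAF (V600E) with GST-MEK substrate was preincubated with compound for 10 min at room temperature, then reacted with 100 μM ATP for 45 min on milk-preblocked wells, with antibody detection by DELFIA europium fluorescence. Response is taken as % of DMSO control after empty-vector blank subtraction; IC50 is from a variable-slope sigmoidal fit, mean of usually three independent runs.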

Test [2] deals with pERK. Kind of test: Cell Based Phospho-ERK Assay. The settings on record: 6 h, 6 hours incubation with test compound.
The test system of test [3] is WM266.4 melanoma cells. Kind of test: SRB Cell Proliferation Assay (SRB GI50). The test is classed as cell-based. The settings on record: Homo sapiens, WM 266-4, 144 h, 6 days growth. In a few lines: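 WM266.4 cells (1000/well) grown 6 days with compound at 100 μM to 0.005 μM (3-fold dilutions) in DMEM/10% FBS at 37 °C. Cells TCA-fixed, sulphorhodamine-B stained, A540 read. GI50 is the concentration giving A540, as % of untreated control, midway between the plateaus.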

T1 sequence (P15056 whole entry V600E): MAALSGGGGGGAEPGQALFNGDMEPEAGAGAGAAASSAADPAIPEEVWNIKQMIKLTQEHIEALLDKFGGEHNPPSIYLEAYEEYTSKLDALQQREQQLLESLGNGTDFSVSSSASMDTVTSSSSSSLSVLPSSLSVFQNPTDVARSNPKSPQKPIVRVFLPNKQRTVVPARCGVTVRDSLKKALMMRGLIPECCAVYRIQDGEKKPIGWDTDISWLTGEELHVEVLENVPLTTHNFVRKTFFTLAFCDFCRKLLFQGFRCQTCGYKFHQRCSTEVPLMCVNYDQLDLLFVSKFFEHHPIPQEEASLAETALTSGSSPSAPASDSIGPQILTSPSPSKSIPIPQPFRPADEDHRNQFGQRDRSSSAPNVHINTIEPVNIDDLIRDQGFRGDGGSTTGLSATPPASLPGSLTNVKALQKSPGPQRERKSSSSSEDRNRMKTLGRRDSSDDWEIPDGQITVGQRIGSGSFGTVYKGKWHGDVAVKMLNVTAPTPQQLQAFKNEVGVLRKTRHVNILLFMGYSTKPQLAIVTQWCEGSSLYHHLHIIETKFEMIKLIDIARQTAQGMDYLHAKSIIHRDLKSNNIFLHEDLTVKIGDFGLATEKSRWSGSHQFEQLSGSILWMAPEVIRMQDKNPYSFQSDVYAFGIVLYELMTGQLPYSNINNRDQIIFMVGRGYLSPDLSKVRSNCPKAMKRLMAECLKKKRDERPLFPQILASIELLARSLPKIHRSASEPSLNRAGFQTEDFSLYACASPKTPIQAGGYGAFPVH

Regarding `Cc1ccc(-n2nc(C(C)(C)C)cc2NC(=O)Nc2ccc(Oc3ccnc4[nH]c(=O)cnc34)cc2F)cn1` [AA-084, 1-(3-tert-butyl-1-(6-methylpyridin-3-yl)-1H-pyrazol-5-yl)-3-(2-fluoro-4-(3-oxo-3,4-dihydropyrido[3,2-b]pyrazin-8-yloxy)phenyl)urea], the half-maximal inhibitory concentration (IC50) is 0.1 to 1 µM in test [1] and < 1 µM in test [2]. The 50% growth inhibitory concentration (GI50) in test [3] is < 1 µM.
In the case of `Cc1ccc(-n2nc(C(C)(C)C)cc2NC(=O)Nc2ccc(Oc3ccnc4[nH]c(=O)c(N)nc34)c3ccccc23)cc1` [AA-077, 1-(4-(2-amino-3-oxo-3,4-dihydropyrido[2,3-b]pyrazin-8-yloxy)naphthalen-1-yl)-3-(3-tert-butyl-1-p-tolyl-1H-pyrazol-5-yl)urea], the IC50 in test [1] was 0.1 to 1 µM; in test [2], < 1 µM. For the same compound, the concentration for 50% growth inhibition (GI50) in test [3] was < 1 µM.
`CC(C)(C)c1cc(NC(=O)Nc2ccc(Oc3ccnc4[nH]c(=O)cnc34)cc2F)n(-c2ccc(S(C)(=O)=O)cc2)n1` [AA-090, 1-(3-tert-butyl-1-(4-(methylsulfonyl)phenyl)-1H-pyrazol-5-yl)-3-(2-fluoro-4-(3-oxo-3,4-dihydropyrido[3,2-b]pyrazin-8-yloxy)phenyl)urea]: the IC50 in test [1] is 0.1 to 1 µM; in test [2] it was < 1 µM. In addition, in test [3], the GI50 is < 1 µM.
Take `Cc1ccc(-n2nc(C(C)(C)C)cc2NC(=O)Nc2ccc(Oc3ccnc4[nH]c(=O)c(N)nc34)cc2F)cc1` [AA-057, 1-(4-(2-amino-3-oxo-3,4-dihydropyrido[2,3-b]pyrazin-8-yloxy)-2-fluorophenyl)-3-(3-tert-butyl-1-p-tolyl-1H-pyrazol-5-yl)urea]: the IC50 in test [1] was 0.1 to 1 µM; in test [2], < 1 µM. The GI50 in test [3] was < 1 µM.
Consider `C#CCn1nc(C(C)(C)C)cc1NC(=O)Nc1ccc(Oc2ccnc3[nH]c(=O)cnc23)cc1F` [AA-096], for which the half-maximal inhibitory concentration (IC50) in test [1] was < 0.1 µM; in test [2] it was < 1 µM. Besides, in test [3], the GI50 was in the range of 1 to 10 µM.
On the same counts, the results for `COc1ccc(-n2nc(C(C)(C)C)cc2NC(=O)Nc2ccc(Oc3ccnc4[nH]c(=O)cnc34)cc2F)cn1` [AA-062, 1-(3-tert-butyl-1-(6-methoxypyridin-3-yl)-1H-pyrazol-5-yl)-3-(2-fluoro-4-(3-oxo-3,4-dihydropyrido[2,3-b]pyrazin-8-yloxy)phenyl)urea] are < 0.1 µM, < 1 µM and < 1 µM.
The like results for `CC(C)(C)c1cc(NC(=O)Nc2cccc(Oc3ccnc4[nH]c(=O)cnc34)c2)n(-c2ccccc2)n1` [AA-075, 1-(3-tert-butyl-1-phenyl-1H-pyrazol-5-yl)-3-(3-(3-oxo-3,4-dihydropyrido[2,3-b]pyrazin-8-yloxy)phenyl)urea] were, in that order, < 0.1 µM, < 1 µM and < 1 µM.

The IC50 is the midpoint of a concentration-inhibition curve. A low value points to greater potency in that assay. Usually GI50 stands for the concentration that inhibits growth by half. Low values mean greater sensitivity of the cells, high ones lower sensitivity of the cells.
